What was measured:
Experiment in all cases: competitive isoTOP-ABPP, MDA-MB-231 soluble proteome
Type in all cases: binding
WDR45L = target: T1, WDR45L (Homo sapiens, UniProt Q5MNZ6); settings: 100 μM LDE, 60 min; peptide C*NYLALVGGGK
T1 construct: directly in native proteomes; endogenous in cells; host or cells: MDA-MB-231
Description: (§1) Here, we envisioned that isoTOP-ABPP could be advanced to discover and quantify reactions between cysteines in proteomes and any electrophilic compound. In this advanced, ‘competitive’ version of isoTOP-ABPP (FIG. 1a), a proteome is treated with an electrophile (experimental sample) or DMSO (control sample). Both proteomic samples are then labeled with the IA probe and conjugated by CuAAC to light and heavy azide-biotin tags, respectively. The light and heavy samples are then mixed and subjected to our described isoTOP-ABPP protocol for enrichment, identification, and quantification of IA-labeled cysteines^30. Electrophile-modified cysteines are quantified by measuring the MS1 chromatographic peak ratios (R values) for heavy (DMSO-treated) over light (electrophile-treated) samples, with higher R values reflecting greater sensitivity to the electrophile. In this format, competitive isoTOP-ABPP can assay electrophiles against 1000+ cysteines in parallel directly in native proteomes without requiring any chemical modification to the electrophiles themselves.
(§2) Competitive isoTOP-ABPP experiments were performed in quadruplicate using the soluble proteome of the human breast cancer cell line MDA-MB-231 cell line. Proteomes were treated with 100 μM HNE, 15d-PGJ2, or 2-HD, for 60 minutes, followed by the IA-probe (100 μM, 60 min) A total of ˜1400 cysteine reactivities were quantified across the aggregate data set, with at least 900 cysteine reactivities quantified for each LDE (FIG. 2a) more than 750 of which were quantified for all the three electrophiles.
(§3) HNE was purchased from EMD biosciences, 15d-PGJ2 was purchased from Cayman Chemicals and 2-HD was purchased from Santa Cruz Biotechnology. Proteome samples were diluted to a 4 mg protein/mL solution in PBS. For each profiling experiment, one aliquot of the proteome sample (0.5 mL) was treated with 100 μM of LDE using 5 μL of a 10 mM stock and the other aliquot was treated with 5 μL of either ethanol (for HNE and 15d-PGJ2) or DMSO (for 2-HD) as control. For the concentration-dependent profiling experiments using HNE, aliquots of the proteomes (0.5 mL each) were treated with 5, 10, 50, 100 and 500 μM of HNE using 5 μL of 0.5, 1.0, 5, 10 and 50 mM of stock solution, respectively. After 60 minutes of treatment at room temperature, both the LDE-treated and control aliquots were passed through a NAP-5 Sephadex column (GE healthcare) to remove any unreacted LDE. The volume of each aliquot was increased to 1 mL with the concentration at 2 mg/mL after this step.
(§4) Each of the control and LDE-treated proteome samples (˜2 mg protein/mL in 1 mL volume) was treated with 100 μM of IA-probe using 10 μL of a 10 mM stock in DMSO. The labeling reactions were incubated at room temperature for 1 hour. Click chemistry (acetylene-azide cycloaddition) was performed by the addition of 100 μM of either the Heavy-TEV-Tag (for the control sample) or Light-TEV-Tag (for the LDE-treated sample) (20 μL of a 5 mM stock), 1 mM TCEP (fresh 50× stock in water), 100 μM ligand (17× stock in DMSO:t-Butanol 1:4) and 1 mM CuSO4 (50× stock in water). Samples were allowed to react at room temperature for 1 hour. After the click chemistry step, the light and heavy-labeled samples were mixed together and centrifuged (5900×g, 4 min, 4° C.) to pellet the precipitated proteins.
(§5) The pellets were washed twice in cold MeOH, after which the pellet was solubilized in PBS containing 1.2% SDS via sonication and heating (5 min, 80° C.). Samples were subjected to streptavidin enrichment of probe-labeled proteins, sequential on-bead trypsin and TEV digestion, and liquid chromatography-mass spectrometry (LC-MS) analysis according to the published isoTOP-ABPP protocol^30.
(§6) IA-probe labeled peptides were identified by SEQUEST2 and DTASelect3, and the quantification of heavy/light ratios (isoTOP-ABPP ratios, R) was performed by an in-house software (CIMAGE) as previously described. […]

CCT8 = target: T2, CCT8 (Homo sapiens, UniProt P50990); settings: 100 μM LDE, 60 min; peptide IAVYSC*PFDGMITETK
T2 construct: directly in native proteomes; endogenous in cells; host or cells: MDA-MB-231
T2 sequence (P50990 1-548): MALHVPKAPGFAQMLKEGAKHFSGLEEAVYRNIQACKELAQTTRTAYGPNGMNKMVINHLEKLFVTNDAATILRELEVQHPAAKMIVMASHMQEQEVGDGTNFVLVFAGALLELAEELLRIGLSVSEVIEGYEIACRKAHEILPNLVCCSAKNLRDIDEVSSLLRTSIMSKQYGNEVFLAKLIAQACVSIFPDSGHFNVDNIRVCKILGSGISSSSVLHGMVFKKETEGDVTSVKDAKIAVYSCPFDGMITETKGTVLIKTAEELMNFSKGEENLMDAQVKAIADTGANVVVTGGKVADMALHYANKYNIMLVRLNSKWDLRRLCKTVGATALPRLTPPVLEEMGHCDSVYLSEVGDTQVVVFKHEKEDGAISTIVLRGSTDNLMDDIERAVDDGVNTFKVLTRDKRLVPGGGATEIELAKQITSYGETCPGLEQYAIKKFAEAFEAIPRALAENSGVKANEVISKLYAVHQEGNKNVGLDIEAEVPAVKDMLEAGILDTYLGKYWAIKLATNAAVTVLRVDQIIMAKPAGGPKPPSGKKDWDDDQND
Description: as §1, §2, §3, §4, §5, §6

PEF1 = target: T3, PEF1 (Homo sapiens, UniProt Q9UBV8); settings: 100 μM LDE, 60 min; peptide QALVNC*NWSSFNDETCLMMINMFDK
T3 construct: directly in native proteomes; endogenous in cells; host or cells: MDA-MB-231
T3 sequence (Q9UBV8 1-284): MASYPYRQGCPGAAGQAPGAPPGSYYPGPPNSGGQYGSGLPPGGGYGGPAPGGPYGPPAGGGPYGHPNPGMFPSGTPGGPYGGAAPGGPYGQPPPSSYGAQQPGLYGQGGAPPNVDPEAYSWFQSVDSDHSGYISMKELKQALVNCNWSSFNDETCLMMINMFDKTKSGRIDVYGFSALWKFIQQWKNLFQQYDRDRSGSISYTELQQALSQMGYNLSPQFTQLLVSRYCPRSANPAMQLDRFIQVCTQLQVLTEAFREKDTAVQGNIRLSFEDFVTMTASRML
Description: as §1, §2, §3, §4, §5, §6

T1 sequence (Q5MNZ6 whole entry): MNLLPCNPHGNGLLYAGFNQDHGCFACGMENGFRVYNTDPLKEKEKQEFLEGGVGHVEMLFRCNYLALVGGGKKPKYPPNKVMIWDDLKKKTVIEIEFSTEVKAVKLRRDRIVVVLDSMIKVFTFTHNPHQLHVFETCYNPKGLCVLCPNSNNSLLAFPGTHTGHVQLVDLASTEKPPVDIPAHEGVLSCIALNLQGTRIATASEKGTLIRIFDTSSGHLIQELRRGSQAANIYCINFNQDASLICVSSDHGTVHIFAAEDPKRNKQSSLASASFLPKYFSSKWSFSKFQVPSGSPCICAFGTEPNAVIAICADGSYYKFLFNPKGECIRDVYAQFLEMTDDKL

SMILES	R value (isoTOP-ABPP ratio heavy/light) for IA-labeled cysteine of WDR45L (WDR45L)	R value (isoTOP-ABPP ratio heavy/light) for IA-labeled cysteine of CCT8 (CCT8)	R value (isoTOP-ABPP ratio heavy/light) for IA-labeled cysteine of PEF1 (PEF1)
CCCCCCCCCCCCC/C=C/C=O [2-HD, 2-trans-hexadecenal]	1.06	1.06	1.25
CCCCCC(O)/C=C/C=O (stereo not drawn) [4-HNE, 4-Hydroxynonenal]	3.34	1.14	5.14
CCCCC/C=C/C=C1/C(=O)C=C[C@@H]1C/C=C\CCCC(=O)O [PGJ2, 15-deoxy-Δ12,14-prostaglandin J2]	6.45	7.75	2.9
